In the assay the target is Flpin-293-PDE4B2 cells (Homo sapiens, UniProt Q07343). In words: cell-based.
Where [1] appears, read: read-out: Cell Inhibition % @10 nM, 10 nM, Flpin-293-PDE4B2 cells.
The mark [2] stands for this setting: read-out: Cell Inhibition % @100 nM, 100 nM, Flpin-293-PDE4B2 cells.
The mark [3] stands for this setting: read-out: Cell Inhibition % @1 nM, 1 nM, Flpin-293-PDE4B2 cells.

Read-outs that look alike come from different tables or passages of the source.

Chain of Flpin-293-PDE4B2 cells (Q07343 1-564 isoform Q07343-2): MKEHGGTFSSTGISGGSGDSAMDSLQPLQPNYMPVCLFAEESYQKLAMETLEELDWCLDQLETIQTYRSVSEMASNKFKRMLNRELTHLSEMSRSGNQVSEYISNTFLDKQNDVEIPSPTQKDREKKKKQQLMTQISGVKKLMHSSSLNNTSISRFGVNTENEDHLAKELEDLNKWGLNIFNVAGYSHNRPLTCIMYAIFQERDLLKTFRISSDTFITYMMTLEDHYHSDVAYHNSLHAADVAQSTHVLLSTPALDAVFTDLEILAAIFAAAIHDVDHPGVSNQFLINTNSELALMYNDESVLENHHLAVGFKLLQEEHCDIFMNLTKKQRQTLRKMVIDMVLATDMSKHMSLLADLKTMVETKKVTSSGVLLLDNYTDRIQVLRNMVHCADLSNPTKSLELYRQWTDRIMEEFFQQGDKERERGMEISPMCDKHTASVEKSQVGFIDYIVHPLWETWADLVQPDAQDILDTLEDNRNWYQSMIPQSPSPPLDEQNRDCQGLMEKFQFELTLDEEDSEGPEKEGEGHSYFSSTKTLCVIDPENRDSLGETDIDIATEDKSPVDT

As a reminder, the inhibition is the relative decrease from the control value, in per cent. As to `[O-][S+]1CCc2nc(N3CCc4ccc(Cl)cc4C3)nc(NC3(CO)CCC3)c21` (centres unmarked) [Compound 20], the inhibition at 0.01 µM under setting [1] is 14.2%. Further, the inhibition at 0.1 µM under setting [2] is 69.9%.
Regarding `[O-][S+]1CCc2nc(N3CCc4cccc(Cl)c4C3)nc(NC3(CO)CCC3)c21` (centres unmarked) [Compound 21], the inhibition at 0.01 µM under setting [1] was determined as 18.8%. For the same compound, the inhibition at 0.1 µM under setting [2] is 79.2%.
On to `Cn1cc2c(n1)CN(c1nc3c(c(NC4(CO)CCC4)n1)[S+]([O-])CC3)CC2` (centres unmarked) [Compound 30], for which the inhibition at 0.01 µM under setting [1] came out at 11.3%. Also, the inhibition at 0.1 µM under setting [2] came to 48%.
Consider `[O-][S+]1CCc2nc(N3CCc4c(nn5cc(F)ccc45)C3)nc(NC3(CO)CCC3)c21` (centres unmarked) [Compound 32], for which, under setting [3], the inhibition at 0.001 µM came out at 23.5%. Moreover, the inhibition at 0.01 µM under setting [1] is 74.2%. The inhibition at 0.1 µM under setting [2] came out at 97.7%.
With `[O-][S+]1CCc2nc(N3CCc4ccc(Cl)cc4CC3)nc(NC3(CO)CCC3)c21` (centres unmarked) [Compound 34], the inhibition at 0.01 µM under setting [1] came to 14%. Under setting [2], the inhibition at 0.1 µM stood at 62%.
`[O-][S+]1CCc2nc(N3CCc4cc(C(F)(F)F)ccc4C3)nc(NC3(CO)CCC3)c21` (centres unmarked) [Compound 52]: the inhibition at 0.01 µM under setting [1] is 81.8%. Besides, the inhibition at 0.1 µM under setting [2] came to 99.5%.
The matching figures for `[O-][S+]1CCc2nc(N3Cc4ccc(Br)cc4C3)nc(NC3(CO)CCC3)c21` (centres unmarked) [Compound 59]: 42.6% and 85.8%.
The matching figures for `[O-][S+]1CCc2nc(N3CCc4nc(Br)sc4C3)nc(NC3(CO)CCC3)c21` (centres unmarked) [Compound 63]: 31.1% and 76.6%.
As to `[O-][S+]1CCc2nc(N3CCc4cc(I)ccc4C3)nc(NC3(CO)CCC3)c21` (centres unmarked) [Compound 67], the inhibition at 0.001 µM under setting [3] turned out to be 14.2%. In addition, the inhibition at 0.01 µM under setting [1] amounted to 47.4%. Also, the inhibition at 0.1 µM under setting [2] amounted to 96.4%.
Take `NC(=O)c1ccc2c(c1)CCN(c1nc3c(c(NC4(CO)CCC4)n1)[S+]([O-])CC3)C2` (centres unmarked) [Compound 75]: the inhibition at 0.001 µM under setting [3] came out at 4.93%. Besides, the inhibition at 0.01 µM under setting [1] amounted to 24.9%. Under setting [2], the inhibition at 0.1 µM was 51.4%.
Regarding `Cn1ccc(-c2ccc3c(c2)CCN(c2nc4c(c(NC5(CO)CCC5)n2)[S+]([O-])CC4)C3)n1` (centres unmarked) [Compound 77], the inhibition at 0.001 µM under setting [3] was 61%. Also, the inhibition at 0.01 µM under setting [1] turned out to be 99.4%. Also, the inhibition at 0.1 µM under setting [2] came out at 101%.
In the case of `[O-][S+]1CCc2nc(N3CCc4cc(Cl)ncc4C3)nc(NC3(CO)CCC3)c21` (centres unmarked) [Compound 78], the inhibition at 0.001 µM (read-out: Cell Inhibition % @1 nM) was determined as 2.2%. For the same compound, for the setting “read-out: Cell Inhibition % @10 nM”, the inhibition at 0.01 µM is 32.1%. Further, for the setting “read-out: Cell Inhibition % @100 nM”, the inhibition at 0.1 µM came to 86.3%.
With `[O-][S+]1CCc2nc(N3CCc4cnc(Cl)cc4C3)nc(NC3(CO)CCC3)c21` (centres unmarked) [Compound 79], the inhibition at 0.001 µM under setting [3] was 1.99%. Under setting [1], the inhibition at 0.01 µM was 11.2%. Besides, the inhibition at 0.1 µM under setting [2] turned out to be 59.4%.
`COc1ccc2sc3c(c2c1)CCN(c1nc2c(c(NC4(CO)CCC4)n1)[S+]([O-])CC2)C3` (centres unmarked) [Compound 82]: the inhibition at 0.001 µM under setting [3] worked out at 19.1%. Besides, the inhibition at 0.01 µM under setting [1] was determined as 77.5%. Under setting [2], the inhibition at 0.1 µM was 99.9%.
The matching figures for `[O-][S+]1CCc2nc(N3CC[C@@H]4c5ccccc5OC[C@H]4C3)nc(NC3(CO)CCC3)c21` (some centres unmarked) [Compound 83]: 5.79%, 47.8% and 97.3%.
With `[O-][S+]1CCc2nc(N3CCc4cc(-c5ncco5)ccc4C3)nc(NC3(CO)CCC3)c21` (centres unmarked) [Compound 84], under setting [3], the inhibition at 0.001 µM came to 32.9%. Under setting [1], the inhibition at 0.01 µM worked out at 97%. Also, the inhibition at 0.1 µM under setting [2] was 101%.
The matching figures for `[O-][S+]1CCc2nc(N3CCc4cc(-c5cnco5)ccc4C3)nc(NC3(CO)CCC3)c21` (centres unmarked) [Compound 85]: 41.7%, 97% and 101%.
As for `CN1CCN(c2ccc3c(c2)CCN(c2nc4c(c(NC5(CO)CCC5)n2)[S+]([O-])CC4)C3)C1=O` (centres unmarked) [Compound 86], the inhibition at 0.001 µM under setting [3] came out at 8.69%. For the same compound, under setting [1], the inhibition at 0.01 µM worked out at 63.1%. In addition, the inhibition at 0.1 µM under setting [2] was found to be 97.8%.
The corresponding values for `O=C1CCCN1c1ccc2c(c1)CCN(c1nc3c(c(NC4(CO)CCC4)n1)[S+]([O-])CC3)C2` (centres unmarked) [Compound 87] are 2.9%, 31.3% and 89.1%.
The matching figures for `[O-][S+]1CCc2nc(N3CCc4cc(N5CC(F)(F)C5)ccc4C3)nc(NC3(CO)CCC3)c21` (centres unmarked) [Compound 88]: 3.67%, 28.8% and 93.5%.
The matching figures for `[O-][S+]1CCc2nc(N3CCc4cc(N5CC(F)C5)ccc4C3)nc(NC3(CO)CCC3)c21` (centres unmarked) [Compound 89]: 3.47%, 37.4% and 95.3%.
In the case of `[O-][S+]1CCc2nc(N3CCc4cc(-n5ccnc5)ccc4C3)nc(NC3(CO)CCC3)c21` (centres unmarked) [Compound 90], the inhibition at 0.001 µM under setting [3] is 15%. The inhibition at 0.01 µM under setting [1] is 65.8%. The inhibition at 0.1 µM under setting [2] was 97.2%.
The corresponding values for `[O-][S+]1CCc2nc(N3CCc4cc(-n5cccn5)ccc4C3)nc(NC3(CO)CCC3)c21` (centres unmarked) [Compound 91] are 19.2%, 86% and 100%.
The matching figures for `[O-][S+]1CCc2nc(N3CCc4cc(N5CCCC5)ccc4C3)nc(NC3(CO)CCC3)c21` (centres unmarked) [Compound 92]: 3.35%, 43.7% and 98.2%.
On to `CS(=O)(=O)c1ccc2c(c1)CCN(c1nc3c(c(NC4(CO)CCC4)n1)[S+]([O-])CC3)C2` (centres unmarked) [Compound 93], for which the inhibition at 0.001 µM under setting [3] was 14%. Also, under setting [1], the inhibition at 0.01 µM amounted to 61%. Moreover, the inhibition at 0.1 µM under setting [2] was 94.2%.
The corresponding values for `Cn1cnc(-c2ccc3c(c2)CCN(c2nc4c(c(NC5(CO)CCC5)n2)[S+]([O-])CC4)C3)n1` (centres unmarked) [Compound 94] are 34.8%, 94.1% and 100%.
The corresponding values for `[O-][S+]1CCc2nc(N3CCc4cc(F)c(F)cc4C3)nc(NC3(CO)CCC3)c21` (centres unmarked) [Compound 95] are -4.2%, 6.8% and 66.7%.
The matching figures for `[O-][S+]1CCc2nc(N3CCc4cc(Cl)c(F)cc4C3)nc(NC3(CO)CCC3)c21` (centres unmarked) [Compound 96]: -2.7%, 15.7% and 84.8%.
Turning to `[O-][S+]1CCc2nc(N3CCC4=C(COc5ccccc54)C3)nc(NC3(CO)CCC3)c21` (centres unmarked) [Compound 97], the inhibition at 0.001 µM under setting [3] is 1.66%. Besides, the inhibition at 0.01 µM under setting [1] stood at 17.4%. For the same compound, under setting [2], the inhibition at 0.1 µM was 86.5%.
With `Cn1c2c(c3ccc(Cl)cc3c1=O)CCN(c1nc3c(c(NC4(CO)CCC4)n1)[S+]([O-])CC3)C2` (centres unmarked) [Compound 98], under setting [3], the inhibition at 0.001 µM is -1.71%. Under setting [1], the inhibition at 0.01 µM turned out to be 46.7%. Moreover, the inhibition at 0.1 µM under setting [2] is 95.8%.
On to `COc1nc2c(c3ccc(Cl)cc13)CCN(c1nc3c(c(NC4(CO)CCC4)n1)[S+]([O-])CC3)C2` (centres unmarked) [Compound 99], for which, under setting [3], the inhibition at 0.001 µM came to 4.18%. Besides, under setting [1], the inhibition at 0.01 µM turned out to be 43.7%. The inhibition at 0.1 µM under setting [2] was found to be 96.5%.
